Several values for one entry are separate records, joined by “and”; a condition that tells them apart may be missing. Equal values may be shown once.
Legend:
[1] = system: AR transcriptional activity in PCa cells from urine/bladder wash of patients
Source text: (A) & (B) Images show the H&E staining and IHC using anti-PSA for castration sensitive prostate cancer (CSPC) and castration resistance prostate cancer (CRPC) patients, case 9 and 11 respectively. (C), (D), (E) & (F) Graphs show single cell response to treatment detected with PCA3-Cre-PSEBC-ITSTA in PCa cells from case 9 and 11. Urine/bladder wash from patients post-DRE was sampled and spun down to collect all the cells. These cells were infected with 5×10^5 virus particles of PCA3-Cre-PSEBC-ITSTA. […] Forty-eight hours post treatment imaging was repeated to assess response on the same cells to determine change in expression. Relative grey intensity=((sum grey intensity per ROI−sum grey intensity of background)÷ sum grey intensity at 0 h)×100).
(D) Images show the H&E staining and IHC using anti-PSA for castration resistance prostate cancer (CRPC) patients 11. […] Urine or bladder wash from patients was sampled and spun down to collect all the cells. These cells were infected with 5×10^5 virus particles of PCA3-Cre-PSEBC-ITSTA. […] Forty-eight hours post treatment imaging was repeated to assess response on the same cells.
Forty-eight hours later, single cell bioluminescence was measured again. Single cell response to antiandrogen was determined and cells were considered as resistant if luciferase activity increased despite antiandrogen treatment.
Forty-eight hours post-treatment, single cell bioluminescence was measured again. For case 22, sampling was done as a naïve state before any treatment was received. Similar analysis as cell lines was performed.
The above described procedure for isolation was used to isolate cells from these samples. The samples were then infected with 5×10^5 ivp of PCA3-Cre-PSEBC-TSTA-fl adenovirus. […] Forty-eight hours later, bioluminescence imaging was repeated on the same cells. Percentage of targeted cells=(number bioluminescence positive cells÷number m-cherry positive cells)×100. The sum of gray intensity values was determined for single cells before and after treatment using CellSens software. Relative gray intensity=((sum gray intensity per ROI−sum gray intensity of background)÷sum gray intensity at 0 h)×100).

[2] = system: 22Rv1 cells; test: Growth curves of PCa cells (cell counter); type: cell-based; details: DHT 1 nM + antiandrogen 10 μM; six days of culture
Procedure: The cells were trypsinized and counted using a cell counter after six days of culture. Relative cell count=number of cells at each time point÷number of cells at 0 h. Data represent technical triplicates±SD.

[3] = system: AR transcriptional activity in 22Rv1-GFP cells; details: DHT 1 nM + antiandrogen 10 μM; 48 h
Procedure: (§1) (A) Scheme for targeting spiked PCa cells from urine. (B) PCa cells (22Rv1 stably expressing mCherry) were spiked in the urine of an healthy individual. […] Seventy-two hours after infection the cells were imaged by adding D-luciferin substrate and with an exposure time of 5 min per image using the bioluminescence microscope. […] Urine samples from healthy patients were spiked with 250 PCa cells stably expressing GFP (22Rv1-GFP or LAPC4-GFP). Urine was spun down to collect all the cells. These cells were infected with 5×10^5 virus particles of PCA3-Cre-PSEBC-ITSTA. […] Forty-eight hours post treatment imaging was repeated to assess response on the same cells to determine change in luciferase expression. Relative grey intensity=((sum grey intensity per ROI−sum grey intensity of background)÷sum grey intensity at 0 h)×100).
(§2) Urine samples from healthy patients were spiked with 250 PCa cells stably expressing GFP (22Rv1-GFP or LAPC4-GFP). Urine was spun down to collect all the cells. These cells were infected with 5×10^5 virus particles of PCA3-Cre-PSEBC-ITSTA. […] Forty-eight hours post treatment imaging was repeated to assess response on the same cells to determine change in luciferase expression. Relative grey intensity=((sum grey intensity per ROI−sum grey intensity of background)÷sum grey intensity at 0 h)×100).

[4] = system: AR transcriptional activity in LAPC4-GFP cells; details: 48 h
Procedure: as §1, §2

[5] = system: AR transcription in LNCaP-GFP cells; test: Single cell treatment response of spiked cells isolated from blood, PSEBC-TSTA; type: cell-based; details: DHT+Enz 1 nM+10 μM; 48 h
Procedure: FIG. 15 LNCaP cells displaying greater cell-to-cell AR-transcriptional homogeneity upon treatment when compared to LAPC4 cells. […] Forty-eight hours after infection, the cells were imaged after an exposure time of 15 secs per image under bioluminescence microscopy. […] Biofluorescence microscopy imaging was performed for each well for 48 h, with images taken every 5 h to track the cells. Luciferase imaging was performed again on the same cells to determine the change in fl expression.
Blood was collected from a healthy donor and placed in a heparin-coated tube. This study was approved by the Institutional Review Board of the CHU de Quebec Hospital, Quebec, QC, Canada. Informed consent was obtained by the donor for blood sampling. All experiments were performed in accordance with relevant guidelines and regulations. LAPC4 and LNCaP cells were added to the blood sample (500 cells/3 ml of blood), followed by a custom-made RosetteSep cocktail ([…] Technologies, Vancouver, BC, Canada) at a volume of 50 μl per ml. The sample was gently mixed and incubated thereafter at room temperature for 20 min. Fifteen milliliters of Ficoll-Paque Plus (GE healthcare Life Sciences, Mississauga, ON, Canada) were then placed in a 50 ml SepMate tube ([…] Technologies) 31 and blood was poured gently along the walls of the tube onto the Ficoll layer. […]

[6] = system: LAPC4 cells; test: Viability assay (resazurin); type: cell-based; details: DHT 1 nM + antiandrogen 10 μM
Procedure: (§3) LAPC4, and 22Rv1 cells were seeded. […] The cells proliferation was measured using resazurin. Relative cell count=(Fluorescence at each time point÷fluorescence at 0 h). Data represents technical triplicates±SD.

[7] = system: 22Rv1 cells; test: Viability assay (resazurin); type: cell-based; details: DHT 1 nM + antiandrogen 10 μM
Procedure: as §3

[8] = system: AR activity in LAPC4-GFP single cells; test: Single cell treatment response, PSEBC-TSTA bioluminescence microscopy; type: cell-based; details: for cells with decrease in fl activity / cells with increase in fl activity: n=10 cells, 48 h treatment, DHT 1 nM or DHT+Enz 1 nM+10 μM
Procedure: Forty-eight hours post-infection, the cells were imaged after D-luciferin addition. […] GFP biofluorescence imaging was then performed every 5 h to track the cells. After 48 hours of treatment, luciferase imaging was repeated to determine the change in fl expression. […] The corresponding cells tracked and imaged by biofluorescence microscopy is also shown. […] LAPC4-GFP cells were infected with PCA3-3STA, treated and imaged as described in (A). (D) Upper panel: Scheme of the method used to isolate and image spiked PCa cells from blood. […] Every 5 h, GFP biofluorescence imaging was performed to track the cells. At 48 h, luminescence imaging was repeated to determine single cell fl expression changes. Lower panels: Biofluorescence and bioluminescence images of blood spiked-LAPC4-GFP cells transduced with PSEBC-TSTA after PCa cell isolation. (E) Bioluminescence microscopy quantification of single cell responses to AR-antagonists after PSEBC-TSTA transduction of PCa spiked cells (LAPC4-GFP). Relative grey intensity=((sum grey intensity per ROI−sum grey intensity of background)÷sum grey intensity at 0 h)×100. Data represent technical triplicates±SD.
Forty-eight hours after infection, the cells were imaged by adding D-luciferin and an exposure time of 15 secs per image under bioluminescence microscopy. […] GFP biofluorescence imaging was performed every 5 h to track the cells. After 48 hours, luminescence imaging was performed again on the same cells to determine the changes in fl activity. Relative grey intensity was quantified for n=10 cells in each treatment condition before and after treatment. Relative grey intensity=((sum grey intensity per ROI−sum grey intensity of background)÷sum grey intensity at 0 h)×100. Each ROI defines a single cell.
To track the change in position and growth of single cells in which fl activity was measured, biofluorescence microscopy imaging was performed every 5 h for 48 h (GFP-positive cells) after which time bioluminescence imaging and quantification were repeated on the same cells. Sum grey intensity was then determined for single cells before and after treatment using the cellSens soft-ware. Relative grey intensity=((sum grey intensity per ROI−sum grey intensity of background)÷sum grey intensity at 0 h)×100.

With `CC(O)(CS(=O)(=O)c1ccc(F)cc1)C(=O)Nc1ccc(C#N)c(C(F)(F)F)c1` (centres unmarked) [Bic, bicalutamide] the “cells with decrease in PSEBC activity” value [1] was 80% and 60%, the “cells with increase in fl expression” value [1] was 50% and the “level of AR activity of AR active cells (relative mean luminescence activity per cell)” value [1] was 418.5%. For the same molecule, the “urine PCa cells with increase in PSEBC promoter dependent fl activity compared to DHT only group” value [1] was 44% and 67%, the “urine tumor cells AR active (relative fraction of AR active cells)” value [1] was 63% and the “growth inhibition (relative cell count)” value [2] was “not inhibited”. For the same molecule, the “percentage of cells with increased activity relative to DHT treated group” value [3] was 114%, the “cells with decrease in luciferase activity” value ([4]; DHT 1 nM + Bic 10 μM) was 60% and the “cells with increase in luciferase activity” value ([4]; DHT 1 nM + Bic 10 μM) was 40%. The “percentage of cells with increased activity relative to DHT treated group” value ([4]; DHT 1 nM + antiandrogen 10 μM) was 14%.
With `CNC(=O)c1ccc(N2C(=S)N(c3ccc(C#N)c(C(F)(F)F)c3)C(=O)C2(C)C)cc1F` [Enz, enzalutamide] the “single cell AR transcriptional response pattern” value [5] was “homogeneous response”, the “growth inhibition (resazurin proliferation)” value [6] was “displayed inhibited growth” and the “growth inhibition (resazurin proliferation)” value [7] was “did not display inhibited growth”. For the same molecule, the “effect on DHT induction of sum of fl activity of ten single cells” value ([8]; DHT 1 nM + antiandrogen 10 μM, 48 h) was “inhibited”, the “cells with decrease in fl activity” value [8] was 70% and the “cells with increase in fl activity” value [8] was 30%.
For `C[C@]12CCC(=O)C[C@@H]1CC[C@@H]1[C@@H]2CC[C@]2(C)[C@@H](O)CC[C@@H]12` [DHT, dihydrotestosterone], the “cells with decrease in PSEBC activity” value [1] was 60%, the “induction of sum of fl activity of ten single cells” value ([8]; DHT 1 nM, 48 h) was 8.8 fold and the “cells with decrease in fl activity” value [8] was 20%. For the same molecule, the “cells with increase in fl activity” value [8] was 80%.

Source: patent US20200140951A9, “Transcriptional system and uses thereof for single cell detection” (Université Laval, priority 2017, published 2020)
